Data: ChEMBL document CHEMBL5512619, “Anticancer mechanism of coumarin-based derivatives” (Eur J Med Chem, 2024)
Blank lines part the entries; values can stand above or below the compound they belong to.

Tests used:
MCF7 [1] = test: Cytotoxicity against human MCF-7 cells relative to control; format: functional
[2] = biological target: Vascular endothelial growth factor receptor 2 (Homo sapiens, UniProt P35968); test: Inhibition of VEGFR2 (unknown origin)
[3] = Inhibition of DNA topoisomerase II (unknown origin)
MCF7 [4] = test: Cytotoxicity against human MCF-7 cells; format: functional, cell-based
HeLa [5] = test: Antiproliferative activity against human HeLa cells incubated for 48 hrs by MTT assay; format: functional, cell-based
A549 = test: Antiproliferative activity against human A549 cells incubated for 48 hrs by MTT assay; format: functional, cell-based; conditions: A549, 48 h
T-cell = test: Cytotoxicity against mouse T-lymphocyte cells by MTT assay; format: functional, cell-based
[6] = Cytotoxicity against mouse LB3 cells by MTT assay; format: functional, cell-based
EL4 = test: Cytotoxicity against mouse EL4 cells by MTT assay; format: functional, cell-based
MCF7 [7] = test: Cytotoxicity against human MCF7 cells by MTT assay; format: functional, cell-based
Tubulin = test: Inhibition of tubulin polymerization (unknown origin) by spectrophotometric method; format: protein-complex assay, Homo sapiens
MDA-MB-231 [8] = test: Cytotoxicity against human MDA-MB-231 cells by MTT assay; format: functional, cell-based
HepG2 [9] = test: Cytotoxicity against human HepG2 cells incubated for 72 hrs by MTT assay; format: functional, cell-based; conditions: HepG2, 72 h
[10] = biological target: Receptor tyrosine-protein kinase erbB-2 (Homo sapiens, UniProt P04626); test: Inhibition of HER2 (unknown origin)
[11] = biological target: Epidermal growth factor receptor (Homo sapiens, UniProt P00533); test: Inhibition of EGFR (unknown origin)
HeLa [12] = test: Cytotoxicity against human HeLa cells incubated for 72 hrs by MTT assay; format: functional, cell-based
[13] = Cytotoxicity against human Lu1 cells incubated for 72 hrs by MTT assay; format: functional, cell-based; conditions: Lu1, 72 h
HeLa [14] = test: Antiproliferative activity against human HeLa cells; format: functional, cell-based
Albumin = Albumin (Homo sapiens, UniProt P02768); test: Reversible binding affinity to human serum albumin
Carbonic anhydrase 1 = Carbonic anhydrase 1 (Homo sapiens, UniProt P00915); test: Binding affinity to human CA1 assessed as inhibition constant incubated for 10 mins by phenol red dye based stopped flow CO2 hydration assay
Carbonic anhydrase 2 = Carbonic anhydrase 2 (Homo sapiens, UniProt P00918); test: Binding affinity to human CA2 assessed as inhibition constant incubated for 10 mins by phenol red dye based stopped flow CO2 hydration assay
Carbonic anhydrase 9 = Carbonic anhydrase 9 (Homo sapiens, UniProt Q16790); test: Binding affinity to human CA9 assessed as inhibition constant incubated for 10 mins by phenol red dye based stopped flow CO2 hydration assay
Carbonic anhydrase 12 = Carbonic anhydrase 12 (Homo sapiens, UniProt O43570); test: Binding affinity to human CA12 assessed as inhibition constant incubated for 10 mins by phenol red dye based stopped flow CO2 hydration assay
MDA-MB-231 [15] = test: Antiproliferative activity against human MDA-MB-231 cells incubated for 96 hrs by MTT assay; conditions: MDA-MB-231, 96 h
T98G = test: Induction of apoptosis in human T98G cells relative to control; format: functional
HepG2 [16] = test: Induction of apoptosis in human HepG2 cells assessed as necrotic cells at 2 times IC50 incubated for 12 hrs by annexin V-FITC and PI staining based flow cytometry analysis relative to control; format: functional
HCT-116 = test: Cytotoxicity against human HCT-116 cells incubated for 2 days by Neutral Red staining based assay; format: functional, cell-based; conditions: HCT-116, 48 h
[17] = Cytotoxicity against African green monkey Vero cells incubated for 2 days by Neutral Red staining based assay; format: toxicity, cell-based, Chlorocebus sabaeus
HepG2 [18] = test: Induction of apoptosis in human HepG2 cells at 1 time IC50 incubated for 24 hrs by annexin V-FITC and PI staining based flow cytometry analysis relative to control; format: functional
HepG2 [19] = test: Cytotoxicity against human HepG2 cells incubated for 2 days by Neutral Red staining based assay; format: functional, cell-based; conditions: HepG2, 48 h
HepG2 [20] = test: Induction of apoptosis in human HepG2 cells at 2 times IC50 incubated for 24 hrs by annexin V-FITC and PI staining based flow cytometry analysis relative to control; format: functional
HepG2 [21] = test: Induction of apoptosis in human HepG2 cells assessed as necrotic cells at 1 time IC50 incubated for 12 hrs by annexin V-FITC and PI staining based flow cytometry analysis relative to control; format: functional
SK-LU-1 = test: Cytotoxicity against human SK-LU-1 cells incubated for 2 days by Neutral Red staining based assay; format: functional, cell-based; conditions: SK-LU-1, 48 h
HepG2 [22] = test: Induction of apoptosis in human HepG2 cells assessed as necrotic cells at 1 time IC50 incubated for 24 hrs by annexin V-FITC and PI staining based flow cytometry analysis relative to control; format: functional
HepG2 [23] = test: Induction of apoptosis in human HepG2 cells assessed as necrotic cells at 2 times IC50 incubated for 24 hrs by annexin V-FITC and PI staining based flow cytometry analysis relative to control; format: functional
MCF7 [24] = test: Antiproliferative activity against human MCF7 cells measured after 72 hrs by MTT assay; format: functional, cell-based; conditions: MCF7, 72 h
SK-OV-3 = test: Antiproliferative activity against human SK-OV-3 cells measured after 21 hrs by MTT assay; format: functional, cell-based; conditions: SK-OV-3, 21 h
[25] = Induction of apoptosis in human MOG-G-CCM cells relative to control; format: functional
[26] = Induction of autophagy in human MOG-G-CCM cells relative to control; format: functional

Epidermal growth factor receptor, sequence (P00533 whole entry): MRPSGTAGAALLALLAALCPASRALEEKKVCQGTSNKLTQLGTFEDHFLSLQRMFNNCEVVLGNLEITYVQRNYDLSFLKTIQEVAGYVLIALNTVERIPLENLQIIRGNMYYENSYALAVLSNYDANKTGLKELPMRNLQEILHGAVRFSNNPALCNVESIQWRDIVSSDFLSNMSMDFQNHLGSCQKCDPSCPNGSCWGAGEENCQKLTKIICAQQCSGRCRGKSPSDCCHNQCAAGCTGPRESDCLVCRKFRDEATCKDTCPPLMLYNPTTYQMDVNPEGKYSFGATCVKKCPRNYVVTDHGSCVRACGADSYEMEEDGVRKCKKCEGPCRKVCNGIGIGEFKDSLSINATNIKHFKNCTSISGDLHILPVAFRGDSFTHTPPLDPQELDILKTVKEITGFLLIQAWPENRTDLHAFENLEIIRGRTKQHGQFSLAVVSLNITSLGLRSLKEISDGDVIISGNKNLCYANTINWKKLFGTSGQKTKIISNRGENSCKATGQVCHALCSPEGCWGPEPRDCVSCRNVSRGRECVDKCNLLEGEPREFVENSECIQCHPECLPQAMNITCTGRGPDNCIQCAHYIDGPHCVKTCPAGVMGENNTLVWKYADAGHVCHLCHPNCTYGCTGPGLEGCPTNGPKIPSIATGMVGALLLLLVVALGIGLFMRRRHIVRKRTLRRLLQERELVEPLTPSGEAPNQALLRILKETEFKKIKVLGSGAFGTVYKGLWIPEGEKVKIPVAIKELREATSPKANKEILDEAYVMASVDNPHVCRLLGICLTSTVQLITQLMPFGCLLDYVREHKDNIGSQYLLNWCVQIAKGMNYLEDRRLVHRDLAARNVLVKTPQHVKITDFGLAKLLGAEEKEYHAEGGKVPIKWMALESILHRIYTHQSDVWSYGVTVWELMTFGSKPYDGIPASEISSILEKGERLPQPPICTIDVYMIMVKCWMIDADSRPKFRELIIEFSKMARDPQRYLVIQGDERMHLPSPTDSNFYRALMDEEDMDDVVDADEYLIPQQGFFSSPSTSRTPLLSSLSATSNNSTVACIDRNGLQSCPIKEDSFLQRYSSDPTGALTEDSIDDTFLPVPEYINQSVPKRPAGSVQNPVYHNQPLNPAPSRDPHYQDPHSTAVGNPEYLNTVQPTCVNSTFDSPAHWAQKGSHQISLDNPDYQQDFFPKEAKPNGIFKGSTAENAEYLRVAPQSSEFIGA
Albumin, sequence (P02768 whole entry): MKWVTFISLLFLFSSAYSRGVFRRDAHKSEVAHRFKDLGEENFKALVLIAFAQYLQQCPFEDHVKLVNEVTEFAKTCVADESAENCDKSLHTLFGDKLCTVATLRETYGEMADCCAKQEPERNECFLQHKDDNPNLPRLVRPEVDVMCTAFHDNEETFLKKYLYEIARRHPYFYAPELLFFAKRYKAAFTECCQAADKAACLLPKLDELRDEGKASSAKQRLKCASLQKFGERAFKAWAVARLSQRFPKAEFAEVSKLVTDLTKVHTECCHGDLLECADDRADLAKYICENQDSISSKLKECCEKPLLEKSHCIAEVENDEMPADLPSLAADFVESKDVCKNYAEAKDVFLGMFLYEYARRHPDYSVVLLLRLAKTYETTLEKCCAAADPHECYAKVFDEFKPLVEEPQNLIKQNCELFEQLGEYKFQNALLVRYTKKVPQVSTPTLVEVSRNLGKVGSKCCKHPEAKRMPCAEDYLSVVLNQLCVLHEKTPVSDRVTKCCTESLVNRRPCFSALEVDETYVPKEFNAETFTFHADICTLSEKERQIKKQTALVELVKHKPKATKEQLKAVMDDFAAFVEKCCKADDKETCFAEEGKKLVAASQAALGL
Receptor tyrosine-protein kinase erbB-2, sequence (P04626 whole entry): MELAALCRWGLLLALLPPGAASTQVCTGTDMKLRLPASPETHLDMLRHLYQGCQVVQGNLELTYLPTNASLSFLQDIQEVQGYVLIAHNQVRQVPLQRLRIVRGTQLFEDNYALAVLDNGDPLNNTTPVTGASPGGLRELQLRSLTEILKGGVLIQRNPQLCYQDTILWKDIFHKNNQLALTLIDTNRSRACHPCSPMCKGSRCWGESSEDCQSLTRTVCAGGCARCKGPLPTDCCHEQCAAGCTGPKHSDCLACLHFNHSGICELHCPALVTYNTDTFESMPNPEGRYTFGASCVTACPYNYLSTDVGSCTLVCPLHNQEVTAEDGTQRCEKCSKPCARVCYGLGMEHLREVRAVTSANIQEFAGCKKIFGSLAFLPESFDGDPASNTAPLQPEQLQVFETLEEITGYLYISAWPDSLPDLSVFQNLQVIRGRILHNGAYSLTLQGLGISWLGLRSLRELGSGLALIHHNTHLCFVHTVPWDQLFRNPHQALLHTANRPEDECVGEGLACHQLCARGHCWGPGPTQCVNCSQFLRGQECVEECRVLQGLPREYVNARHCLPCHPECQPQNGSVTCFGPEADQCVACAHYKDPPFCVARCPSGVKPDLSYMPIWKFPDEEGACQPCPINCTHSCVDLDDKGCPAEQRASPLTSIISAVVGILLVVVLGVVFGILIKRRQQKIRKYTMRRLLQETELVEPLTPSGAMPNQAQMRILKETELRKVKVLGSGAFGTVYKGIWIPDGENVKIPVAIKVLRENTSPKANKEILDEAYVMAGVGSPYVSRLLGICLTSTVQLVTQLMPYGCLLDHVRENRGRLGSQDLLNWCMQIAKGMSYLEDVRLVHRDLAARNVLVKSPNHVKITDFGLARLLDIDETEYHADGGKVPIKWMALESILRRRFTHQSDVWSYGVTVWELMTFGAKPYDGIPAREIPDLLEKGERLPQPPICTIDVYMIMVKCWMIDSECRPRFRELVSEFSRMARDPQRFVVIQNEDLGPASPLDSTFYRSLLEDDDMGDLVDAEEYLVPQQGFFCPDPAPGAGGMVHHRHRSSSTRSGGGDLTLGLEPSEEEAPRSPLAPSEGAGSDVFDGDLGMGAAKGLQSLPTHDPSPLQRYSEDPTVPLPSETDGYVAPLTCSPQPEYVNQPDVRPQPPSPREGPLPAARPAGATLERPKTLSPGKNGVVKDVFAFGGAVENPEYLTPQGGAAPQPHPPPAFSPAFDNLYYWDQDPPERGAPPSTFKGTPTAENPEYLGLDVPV
Carbonic anhydrase 1, sequence (P00915 whole entry): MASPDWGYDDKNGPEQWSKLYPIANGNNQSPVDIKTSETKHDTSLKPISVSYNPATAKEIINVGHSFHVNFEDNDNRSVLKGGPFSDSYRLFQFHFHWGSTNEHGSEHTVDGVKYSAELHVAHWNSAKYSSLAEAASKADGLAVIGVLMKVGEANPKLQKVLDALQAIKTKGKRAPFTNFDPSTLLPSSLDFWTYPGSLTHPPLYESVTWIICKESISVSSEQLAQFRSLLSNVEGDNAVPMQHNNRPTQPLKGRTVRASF
Vascular endothelial growth factor receptor 2, sequence (P35968 whole entry): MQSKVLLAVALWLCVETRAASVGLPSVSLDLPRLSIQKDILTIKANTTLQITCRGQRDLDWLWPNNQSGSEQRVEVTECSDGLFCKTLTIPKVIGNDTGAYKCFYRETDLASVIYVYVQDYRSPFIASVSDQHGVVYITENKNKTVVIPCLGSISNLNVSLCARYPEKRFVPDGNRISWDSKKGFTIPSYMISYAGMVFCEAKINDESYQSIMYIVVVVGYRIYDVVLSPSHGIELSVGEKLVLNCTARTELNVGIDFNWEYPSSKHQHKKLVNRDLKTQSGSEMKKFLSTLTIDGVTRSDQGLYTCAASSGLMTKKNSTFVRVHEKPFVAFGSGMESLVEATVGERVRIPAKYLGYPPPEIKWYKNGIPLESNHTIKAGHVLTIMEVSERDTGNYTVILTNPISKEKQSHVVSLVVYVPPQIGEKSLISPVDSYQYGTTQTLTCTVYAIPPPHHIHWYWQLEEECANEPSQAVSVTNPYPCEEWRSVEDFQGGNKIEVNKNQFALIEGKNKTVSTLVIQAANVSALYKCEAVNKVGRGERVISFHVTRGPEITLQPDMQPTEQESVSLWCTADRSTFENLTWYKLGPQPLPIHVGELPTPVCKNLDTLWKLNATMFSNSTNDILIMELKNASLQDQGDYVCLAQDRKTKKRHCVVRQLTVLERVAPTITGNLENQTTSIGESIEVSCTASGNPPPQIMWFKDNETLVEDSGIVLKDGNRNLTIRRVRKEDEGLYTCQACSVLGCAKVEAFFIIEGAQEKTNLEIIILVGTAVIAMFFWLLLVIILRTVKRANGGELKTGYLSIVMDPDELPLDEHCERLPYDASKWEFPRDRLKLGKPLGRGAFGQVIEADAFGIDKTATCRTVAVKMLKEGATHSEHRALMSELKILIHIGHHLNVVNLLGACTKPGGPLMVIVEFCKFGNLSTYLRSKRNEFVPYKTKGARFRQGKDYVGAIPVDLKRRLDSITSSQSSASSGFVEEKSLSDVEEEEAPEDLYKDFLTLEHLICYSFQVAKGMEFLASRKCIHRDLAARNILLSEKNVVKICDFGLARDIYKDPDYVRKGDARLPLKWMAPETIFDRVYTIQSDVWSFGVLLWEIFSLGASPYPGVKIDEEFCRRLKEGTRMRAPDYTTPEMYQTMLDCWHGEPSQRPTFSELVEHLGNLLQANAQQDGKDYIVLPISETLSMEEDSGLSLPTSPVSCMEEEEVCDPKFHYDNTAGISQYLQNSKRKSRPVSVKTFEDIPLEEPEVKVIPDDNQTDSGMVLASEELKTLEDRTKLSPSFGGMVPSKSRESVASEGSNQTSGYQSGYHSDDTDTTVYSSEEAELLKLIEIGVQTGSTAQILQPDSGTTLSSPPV
Carbonic anhydrase 12, sequence (O43570 whole entry): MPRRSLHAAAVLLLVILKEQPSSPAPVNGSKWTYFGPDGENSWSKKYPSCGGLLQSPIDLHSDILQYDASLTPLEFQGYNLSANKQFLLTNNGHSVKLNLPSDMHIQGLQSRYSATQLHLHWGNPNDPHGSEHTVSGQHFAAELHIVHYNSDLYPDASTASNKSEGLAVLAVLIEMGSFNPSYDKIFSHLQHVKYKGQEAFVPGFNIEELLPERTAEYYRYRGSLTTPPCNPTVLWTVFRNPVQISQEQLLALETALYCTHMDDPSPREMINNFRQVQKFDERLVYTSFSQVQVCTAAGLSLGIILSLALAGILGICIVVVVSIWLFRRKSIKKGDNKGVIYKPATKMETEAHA

Structure (SMILES): COC(=O)C(Cc1ccc(O)cc1)NC(=O)c1cc2ccccc2oc1=O (stereo unspecified)
Activity (MCF7 [1]): 97.82%
IC50 [2]: 34.2 µM
IC50 [3]: 8.6 µM
IC50 (MCF7 [4]): 4.98 µM

Structure (SMILES): COC(=O)C(CCSC)NC(=O)CCNC(=O)c1cc2ccccc2oc1=O (stereo unspecified)
Activity (MCF7 [1]): 97.35%
IC50 [2]: 23.6 µM
IC50 [3]: 4.1 µM
IC50 (MCF7 [4]): 5.85 µM

Structure (SMILES): COc1ccc2oc(=O)cc(COc3c(C)occc3=O)c2c1
IC50 (HeLa [5]): 2.47 µM
IC50 (A549): 2.47 µM

Structure (SMILES): O=C(CCCCCNC(=O)c1cc(C(=O)NCCCCCC(=O)Nc2ccc(-c3c(-c4ccc(OCCN5CCCCC5)cc4)c4ccc(OCCN5CCCCC5)cc4oc3=O)cc2)cc(C(=O)NCCCCCC(=O)Nc2ccc(-c3c(-c4ccc(OCCN5CCCCC5)cc4)c4ccc(OCCN5CCCCC5)cc4oc3=O)cc2)c1)Nc1ccc(-c2c(-c3ccc(OCCN4CCCCC4)cc3)c3ccc(OCCN4CCCCC4)cc3oc2=O)cc1
IC50 (T-cell): 10 µM
IC50 [6]: 10 µM
IC50 (EL4): 10 µM

Structure (SMILES): Cc1c(C(C)C)c(=O)oc2cc(O)cc(O)c12
IC50 (HeLa [14]): 8 µM

Structure (SMILES): Cc1cc(=O)oc2cc(NCc3cc([N+](=O)[O-])ccc3O)ccc12
Kd (Albumin): 0.03 µM

Structure (SMILES): Cc1ccc(C(=O)Nc2ccc3c(c2)C=CS(=O)(=O)O3)cc1S(=O)(=O)N1C[C@@H](C)O[C@@H](C)C1
Ki (Carbonic anhydrase 1): 0.0994 µM
Ki (Carbonic anhydrase 2): 0.0994 µM
Ki (Carbonic anhydrase 9): 0.0306 µM
Ki (Carbonic anhydrase 12): 0.0306 µM

Structure (SMILES): Cc1cc(=O)oc2cc(NCc3cc(Cl)cc(Cl)c3O)ccc12
Kd (Albumin): 0.03 µM

Structure (SMILES): O=C(Nc1ccc2c(c1)C=CS(=O)(=O)O2)c1ccc(F)c(S(=O)(=O)N2CCCCC2)c1
Ki (Carbonic anhydrase 1): 0.0994 µM
Ki (Carbonic anhydrase 2): 0.0994 µM
Ki (Carbonic anhydrase 9): 0.0306 µM
Ki (Carbonic anhydrase 12): 0.0306 µM

Structure (SMILES): O=c1cc(O)c2ccccc2o1 [4-HYDROXYCOUMARINS]
IC50 (MDA-MB-231 [15]): > 100 µM
Activity (T98G): 15%

Structure (SMILES): C=CC(C)(C)c1cc2c(O)c3c(c(C(C)(C)C=C)c2oc1=O)OC(C)(C)C=C3 [CLAUSARIN]
Activity (HepG2 [16]): 27.4%
IC50 (HCT-116): 44.6 µM
IC50 at 2 days [17]: 78.2 µM
Activity (HepG2 [18]): 49.7%
IC50 (HepG2 [19]): 7.6 µM
Activity (HepG2 [20]): 64.2%
Activity (HepG2 [21]): 6.8%
IC50 (SK-LU-1): 6.9 µM
Activity (HepG2 [22]): 1.6%
Activity (HepG2 [23]): 2.7%

Structure (SMILES): COc1cccc2c1C(=O)c1c(O)c3c(c(O)c1C2=O)C[C@@](O)(C(=O)CO)C[C@@H]3O[C@H]1C[C@H](N)[C@H](O)[C@H](C)O1 [DOXORUBICIN]
IC50 (MDA-MB-231 [15]): 0.6 µM
IC50 [3]: 9.65 µM

Structure (SMILES): CNC(=O)c1cc(Oc2ccc(NC(=O)Nc3ccc(Cl)c(C(F)(F)F)c3)cc2)ccn1 [SORAFENIB]
Activity [25]: 25%
Activity [26]: 1%

Structure (SMILES): COc1c2c(cc3oc(=O)ccc13)OC(C)(C)C=C2 [XANTHOXYLETIN]
Activity (HepG2 [16]): 2.9%
Activity (HepG2 [21]): 2.5%

Second part, led by results:

IC50 (Tubulin): 9.2 µM
Structure (SMILES): COc1ccc2c3c(c(=O)oc2c1)CC(C(C)(O)CC/C=C(\C)CCC=C(C)C)O3 (stereo unspecified)
IC50 (MCF7 [7]): 19.8 µM
IC50 (MDA-MB-231 [8]): 15.6 µM

IC50 [10]: 0.13 µM
IC50 [11]: 0.22 µM
Structure (SMILES): CC(=O)OC[C@H]1O[C@@H](N(C(C)=O)C2=NN(C(C)=O)C(c3cc(=O)oc4cc(OCCC(C)C)ccc34)S2)[C@H](OC(C)=O)[C@@H](OC(C)=O)[C@@H]1OC(C)=O (stereo partly specified)
IC50 (HepG2 [9]): 1.18 µM
IC50 (HeLa [12]): 1.18 µM
IC50 [13]: 1.18 µM

IC50 [10]: 0.13 µM
IC50 [11]: 0.22 µM
Structure (SMILES): CCOc1ccc2c(C3SC(N(C(C)=O)[C@@H]4O[C@H](COC(C)=O)[C@H](OC(C)=O)[C@H](OC(C)=O)[C@H]4OC(C)=O)=NN3C(C)=O)cc(=O)oc2c1 (stereo partly specified)
IC50 (HepG2 [9]): 1.18 µM
IC50 (HeLa [12]): 1.18 µM
IC50 [13]: 1.18 µM

IC50 (HeLa [5]): 2.47 µM
IC50 (A549): 2.47 µM
Structure (SMILES): Cc1ccc2oc(=O)cc(COc3c(C)occc3=O)c2c1

IC50 (MCF7 [24]): 73 µM
Structure (SMILES): O=c1ccc2ccc(O)c(O)c2o1 [DAPHNETIN]

IC50 (MCF7 [24]): 193 µM
Structure (SMILES): O=c1ccc2cc(O)c(O)cc2o1 [ESCULETIN]

IC50 (SK-OV-3): > 100 µM
Structure (SMILES): CC(C)(O[C@@H]1O[C@H](CO)[C@@H](O)[C@H](O)[C@H]1O)[C@H]1Cc2cc3ccc(=O)oc3cc2O1 [NODAKENIN]

IC50 (SK-OV-3): > 100 µM
Structure (SMILES): O=c1ccc2ccc(O[C@@H]3O[C@H](CO)[C@@H](O)[C@H](O)[C@H]3O)cc2o1 [SKIMMIN]
